In patent US4226610A, “Herbicidal compounds, preparation thereof and herbicides containing the same” (Meiji Selka Kaisha, Ltd., priority 1978, dated 1980):

Assays:
Japanese prickly ash = assay: Experiment 3 foliar application to naturally growing shrubs; type: in vivo, Xanthoxylum piperitum DC.; conditions: after 3 months
In short: (§1)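 Compounds, diluted to prescribed concentrations with 0.1% octylphenyl polyoxyethanol as surfactant, were sprayed onto the foliage of naturally growing shrubs at 150 liter per 10 are. Kill was scored on a 0 (no effect) to 5 (death) index at 1 and 3 months. Regrowth was graded from − (no reproduction) to +++ (maximum) at 3 months.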

torch azalea = assay: as above; type: in vivo, Rhododendoron Kaempferi Planch.; conditions: for Reproduction-inhibiting: after 3 months
In short: as §1

omodaka = assay: Experiment 6 spray on aquatic plants in concrete pots; type: in vivo, Sagittaria trifolia L.; conditions: 3 months
Source text: The detail of the assessment made in the following Experiments of the invention was as follows:
Four months after treatment, evaluation was made for inhibition of reproduction expressed in terms of symbols ranging from (-) to (+++) where (-) means no reproduction, namely complete suppression of reproduction, (±) remarkable suppression of reproduction; (+) considerable suppression of reproduction; (++) medium supprestion of reproduction; and (+++) no suppression of reproduction.
A paddy field soil was packed in 50 cm. square concrete pots. omodaka (Sagittaria trifolia L.), urikawa (Sagittaria pygmaea Miq.), prog-bit (Hydrocharis dubia) and aginashi (Sagittaria Aginashi Makino) were transplanted; then water was poured onto the soil at 5 cm. depth.
Further, water hyacinth, greater-duckweed (Spirodela polyrhiza Schleid.) and duckweed (Lemna paucicostata Hegelm) were floated on the water.
After one month, the compounds of the invention diluted to the prescribed concentrations as indicated in Table 8 were sprayed in an amount of 100 liter per 10 are. As a surfactant, 0.1% of octylphenyl polyoxyethanol was added thereto.
The killing index (0, no effect; 5, death) after 21 days and 3 months and the reproduction-inhibiting effect (-, no reproduction; +++, maximum reproduction) after 3 months were determined.

purple nutsedge = assay: Experiment 1 foliar application to naturally growing weeds; type: in vivo, Cyperus rotundus L.; conditions: 4 months
In short: (§2)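 Test compounds, diluted to prescribed concentrations with 0.1% octylphenyl polyoxyethanol surfactant, were sprayed onto foliage of naturally growing weeds at 150 liter per 10 are. Killing index (0, no effect; 5, death) was scored at 21 days. Reproduction was scored from (-), complete suppression, to (+++), none, at 2 months for cockspar grass and 4 months for the other weeds.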

Japanese bush cranberry = assay: Experiment 3 foliar application to naturally growing shrubs; type: in vivo, Viburnum dilatatum Thunb.; conditions: after 3 months
In short: as §1

hornwort = assay: Experiment 7 application to water; type: in vivo, Ceratophyllum demersum L.; set-up: scale not given here
Source text: (§3) A black soil was packed in 50 cm. square concrete pots and water was poured there-onto at 50 cm. in depth. Hornwort (Ceratophyllum demersum L.), stonewort (Chara Braunii Gmel.) and salvinia (Salvinia natans All.) were transplanted and pond scum (Spirogira crassa Kutz) and diatoms (Bacillariophyta) were floated in the water.
(§4) Then, the compounds of the invention were applied dropwise onto the surface of the water so that the prescribed concentrations in the water are obtained as indicated in Table 9.

warunasubi = assay: Experiment 1 foliar application to naturally growing weeds; type: in vivo, Solanum carolinensis L.; conditions: for Reproduction-inhibiting effect: 4 months
In short: (§5)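 Dilute compounds to prescribed concentrations; add 0.1% octylphenyl polyoxyethanol; spray foliage of in-situ weeds at 150 liter per 10 are. Score killing 0–5 on day 21. Score reproduction (-) to (+++) at month 2 (cockspar grass) or month 4 (chigaya, azumanezasa, warunasubi).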

eulalia = assay: Experiment 2 foliar application in Japanese cypress afforested land; type: in vivo, Miscanthus sinensis Andress.; set-up: key: 0 = no effect, 5 = death; conditions: 0.125%; after 3 months
In short: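 Field foliar spray on shrubs in Japanese cypress afforested land at 150 liter per 10 are, with compounds at prescribed concentrations. Killing index scored from 0 (no effect) to 5 (death) at 30 days and 3 months. Plant heights ranged from about 50 to 100 cm.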

stonewort = assay: Experiment 7 application to water; type: in vivo, Chara Braunii Gmel.; set-up: scale not given here
Source text: as §3, §4

pond scum = assay: Experiment 7 application to water; type: in vivo, Spirogira crassa Kutz.; set-up: scale not given here
Source text: as §3, §4

yabugarashi = assay: Experiment 1 foliar application to naturally growing weeds; type: in vivo, Cayratia japonica Houtt.; conditions: for Reproduction-inhibiting effect: 4 months
In short: as §2

white clover = assay: as above; type: in vivo, Trifolium repens L.; conditions: 4 months
In short: as §2

chigaya = assay: as above; type: in vivo, Imperata cylindrica Beauv.; conditions: 4 months
In short: as §5

kiichigo = assay: Experiment 3 foliar application to naturally growing shrubs; type: in vivo, Rubus palmatsu Thunb. forma coptophyllus Makino; conditions: after 3 months
In short: as §1

salvinia = assay: Experiment 7 application to water; type: in vivo, Salvinia natans Allioni; set-up: scale not given here
Source text: as §3, §4

lace shrub = assay: Experiment 3 foliar application to naturally growing shrubs; type: in vivo, Stephanandra incisa Zabel; conditions: after 3 months
In short: as §1

manna grass = assay: Experiment 1 foliar application to naturally growing weeds; type: in vivo, Digitaria adsceudes Henr.; conditions: for Reproduction-inhibiting effect: 2 months
In short: as §5

SMILES: C[C@H](NC(=O)[C@H](C)NC(=O)[C@@H](N)CCP(C)(=O)O)C(=O)O [SF-1293 choline, (L-2-Amino-4-methylphosphinobutyryl)-L-alanyl-L-alanine choline]
- Reproduction-inhibiting (Japanese prickly ash; 0.05%): ++
- Killing index (Japanese prickly ash; 0.1%): 4.5
- Reproduction-inhibiting (Japanese prickly ash; 0.1%): ±
- Reproduction-inhibiting (Japanese prickly ash; 0.2%): -
- Reproduction-inhibiting (torch azalea; 0.05%): ++
- Reproduction-inhibiting (torch azalea; 0.1%): -
- Killing index (torch azalea; 0.1%, after 30 days): 4.5
- Reproduction-inhibiting (torch azalea; 0.2%): -
- Reproduction-inhibiting effect (omodaka; 0.05%): ++
- Reproduction-inhibiting effect (omodaka; 0.1%): ±
- Reproduction-inhibiting effect (omodaka; 0.2%): -
- Reproduction-inhibiting effect (purple nutsedge; 0.05%): ++
- Reproduction-inhibiting effect (purple nutsedge; 0.1%): +
- Reproduction-inhibiting effect (purple nutsedge; 0.2%): ±
- Reproduction-inhibiting (Japanese bush cranberry; 0.05%): ++
- Reproduction-inhibiting (Japanese bush cranberry; 0.1%): -
- Reproduction-inhibiting (Japanese bush cranberry; 0.2%): -
- controlling effect (hornwort; 1 ppm, 3 months): 1
- controlling effect (hornwort; 1 ppm, 21 days): 2
- controlling effect (hornwort; 3 ppm, 3 months): 5
- controlling effect (hornwort; 3 ppm, 21 days): 4
- controlling effect (hornwort; 10 ppm, 3 months): 5
- controlling effect (hornwort; 10 ppm, 21 days): 5
- Reproduction-inhibiting effect (warunasubi; 0.05%): ++
- Killing index of Upperground parts (warunasubi; 0.05%, 21 days): 3.5
- Reproduction-inhibiting effect (warunasubi; 0.1%): ±
- Reproduction-inhibiting effect (warunasubi; 0.2%): -
- Killing index (eulalia): 4.5
- controlling effect (stonewort; 1 ppm, 3 months): 2
- controlling effect (stonewort; 1 ppm, 21 days): 3
- controlling effect (stonewort; 3 ppm, 3 months): 5
- controlling effect (stonewort; 3 ppm, 21 days): 4
- controlling effect (stonewort; 10 ppm, 3 months): 5
- controlling effect (stonewort; 10 ppm, 21 days): 5
- controlling effect (pond scum; 1 ppm, 3 months): 1
- controlling effect (pond scum; 1 ppm, 21 days): 2
- controlling effect (pond scum; 3 ppm, 3 months): 5
- controlling effect (pond scum; 3 ppm, 21 days): 3.5
- controlling effect (pond scum; 10 ppm, 3 months): 5
- controlling effect (pond scum; 10 ppm, 21 days): 5
- Reproduction-inhibiting effect (yabugarashi; 0.05%): ++
- Killing index of Upperground parts (yabugarashi; 0.05%, 21 days): 3.5
- Reproduction-inhibiting effect (yabugarashi; 0.1%): ±
- Reproduction-inhibiting effect (yabugarashi; 0.2%): -
- Reproduction-inhibiting effect (white clover; 0.05%): +
- Reproduction-inhibiting effect (white clover; 0.1%): -
- Reproduction-inhibiting effect (white clover; 0.2%): -
- Reproduction-inhibiting effect (chigaya; 0.05%): +
- Reproduction-inhibiting effect (chigaya; 0.1%): -
- Reproduction-inhibiting effect (chigaya; 0.2%): -
- Reproduction-inhibiting (kiichigo; 0.05%): ++
- Reproduction-inhibiting (kiichigo; 0.1%): -
- Reproduction-inhibiting (kiichigo; 0.2%): -
- controlling effect (salvinia; 1 ppm, 3 months): 3
- controlling effect (salvinia; 1 ppm, 21 days): 3.5
- controlling effect (salvinia; 3 ppm, 3 months): 5
- controlling effect (salvinia; 3 ppm, 21 days): 4.5
- controlling effect (salvinia; 10 ppm, 3 months): 5
- controlling effect (salvinia; 10 ppm, 21 days): 5
- Reproduction-inhibiting (lace shrub; 0.05%): ++
- Reproduction-inhibiting (lace shrub; 0.1%): -
- Reproduction-inhibiting (lace shrub; 0.2%): -
- Reproduction-inhibiting effect (manna grass; 0.05%): +
- Reproduction-inhibiting effect (manna grass; 0.1%): ±
- Killing index of Upperground parts (manna grass; 0.1%, 21 days): 4.5
- Reproduction-inhibiting effect (manna grass; 0.2%): -
